From patent US11311553B1, “Methods of treating 4-repeat tauopathies” (priority 2020, dated 2022)

B1: ABBV-8E12: humanized anti-tau monoclonal antibody (antibody, chains of the INN, looked up, V domains shown)
VH: EVKVVESGGGLVQPGGSMKLSCVVSGFTFSNYWVNWVRQAPGKGLEWVAQIRLKSDNYATHYEESVKGRFTISRDDSKSSVYLQMNNLRAEDSGIYYCTNWEDYWGQGTTVTVSS
VL: DIVLTQSPDSLAVSLGERATISCRASQSVSTSRYSYIHWYQQKPGQPPKLLIKYASNLESGVPSRFSGSGSGTDFTLNIHPLEPEDFATYYCHHSWEIPLTFGQGTKLEIK
B2: Gosuranemab: a humanized monoclonal antibody that targets N-terminal tau (antibody, chains of the INN, looked up, V domains shown)
VH: EVHLVESGGALVKPGGSLRLSCAASGFSFSKYGMSWVRQAPGKGLEWVATISSSGSRTYYPDSVKGRFTISRDNAKNTLYLQMNSLRAEDTAMYYCSISWDGAMDYWGQGTTVTVSS
VL: DVVMTQSPLSLPVTLGQPASISCKSSQSIVHSNGNTYLEWYLQKPGQSPQLLVYKVSNRFSGVPDRFSGSGSGTDFTLKISRVEAEDVGTYYCFQGSLVPWAFGGGTKVEIK

Assays:
PSP = details: literature clinical trials in PSP patients; cited from earlier work
[1] = 1-hydroxy (M3) metabolite formed in vivo; cited from earlier work
[2] = system: subjects with probable or possible PSP; experiment: Fasudil treatment of subjects with probable or possible PSP, assessed at baseline, six months and one year; format: in vivo, human; details: fasudil 180 mg/day (60 mg tid)

| Molecule | clinical effect / benefit in PSP (PSP) | further results |
| --- | --- | --- |
| CC[C@H](C)[C@H](NC(=O)[C@H](CO)NC(=O)[C@@H](NC(=O)[C@@H]1CCCN1C(=O)[C@H](C)NC(=O)[C@@H](N)CC(N)=O)C(C)C)C(=O)N1CCC[C@H]1C(=O)N[C@@H](CCC(N)=O)C(=O)O [Davunetide] | not shown not to be effective |  |
| O=S(=O)(c1cccc2c(O)nccc12)N1CCCNCC1 [M3, hydroxyfasudil] |  | half-life [1]: about 8 hours |
| O=C(Oc1ccccc1C(=O)O)c1ccccc1O [Salsalate] | failed |  |
| C=CC1O[C@H]2C[C@H]3OC[C@@]3(OC(C)=O)[C@H]3[C@H](OC(=O)c4ccccc4)[C@]4(O)C[C@H](OC(=O)[C@H](O)[C@H](CC(C)C)NC(=O)OC(C)(C)C)C(C)=C([C@H](OC(C)=O)[C@H](O1)[C@]23C)C4(C)C (some centres unmarked) [TPI 287] | failed to show any effect |  |
| COC1=C(OC)C(=O)C(C/C=C(\C)CC/C=C(\C)CC/C=C(\C)CC/C=C(\C)CC/C=C(\C)CC/C=C(\C)CC/C=C(\C)CC/C=C(\C)CC/C=C(\C)CCC=C(C)C)=C(C)C1=O [coenzyme Q10] | failed to provide benefit |  |
| Cl.O=S(=O)(c1cccc2cnccc12)N1CCCNCC1 [fasudil, Hexahydro-1-(5-isoquinolinesulfonyl)-1H-1,4-diazepine monohydrochloride hemihydrate] |  | Oculomotor parameters [2]: improve; sleep parameters [2]: improve |
| Nc1nc2ccc(OC(F)(F)F)cc2s1 [riluzole] | failed to demonstrate effects |  |
| O=c1sn(-c2cccc3ccccc23)c(=O)n1Cc1ccccc1 [tideglusib] | failed to show benefit |  |
| B1 | failed to demonstrate an effect |  |
| B2 | no effect |  |
